The structures appear in SMILES notation.

Broadly, the IC50 is the concentration at which inhibition is half-maximal.

The experiment concerns the target thioredoxin-1 (Trx) (Homo sapiens, UniProt P10599). Kind of experiment: insulin reduction assay with pure human Trx preincubated with PMX464. It counts as biochemical.

thioredoxin-1 (Trx), sequence (P10599 2-105): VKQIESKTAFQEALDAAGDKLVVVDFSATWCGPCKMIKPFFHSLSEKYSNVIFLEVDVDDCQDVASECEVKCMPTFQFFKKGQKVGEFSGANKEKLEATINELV

On to `O=C1C=CC(O)(c2nc3ccccc3s2)C=C1` [PMX464, 4-(benzothiazol-2-yl)-4-hydroxycyclohexa-2,5-dien-1-one hydrate], for which the IC50 worked out at 20 µM.

Source of the values: PMC2442904 (British Journal of Pharmacology, 2008).
